Molecules are shown by their SMILES. ≈ marks a conversion by molar mass, not a printed value.

Consider nine compounds from ChEMBL document CHEMBL1130467, “Synthesis and antitumor activity of novel cyclopropapyrroloindole(CPI) derivatives bearing methoxycarbonyl and trifluoromethyl groups” (Bioorg Med Chem Lett, 1997).

Experiment [1] has as its system Colon 26. The experiment in a line: Antitumor activity against colon 26 murine adenocarcinoma cells expressed as % body weight change at 0.0625 mg/kg compound dose from day 7 to day 12. Format: functional, Mus musculus.
The subject of experiment [2] is HeLa. The experiment in a line: Concentration required for 50% inhibition of human uterine Cervix Carcinoma cells (HeLaS3). Format: functional, cell-based.
Experiment [3] deals with Colon 26. The experiment is described as follows: Antitumor activity against colon 26 murine adenocarcinoma cells expressed as percent TGI (tumor growth inhibition) at 0.500 mg/kg i.v. compound dose. The class given is functional. To be noted: Mus musculus, route intravenous, read-out: TGI.
For experiment [4], the system named is Colon 26. The experiment in a line: Antitumor activity against colon 26 murine adenocarcinoma cells expressed as percent TGI (tumor growth inhibition) at 0.125 mg/kg i.v. compound dose. To be noted: Mus musculus, route intravenous, read-out: TGI. The class given is functional.
For experiment [5], the system named is Colon 26. The experiment in a line: Antitumor activity against colon 26 murine adenocarcinoma cells expressed as percent TGI 50 (tumor growth inhibition) at 0.500 mg/kg i.v. compound dose. The class given is functional, Mus musculus. Particulars: dose 0.5 mg/kg; route intravenous.
Experiment [6] has as its system Colon 26. The experiment is described as follows: Antitumor activity against colon 26 murine adenocarcinoma cells expressed as maximum dose within 10% body weight loss at 0.500 mg/kg i.v. compound dose. The class given is functional, Mus musculus. Particulars: dose 0.5 mg/kg; route intravenous.
Experiment [7] deals with Colon 26. The experiment is described as follows: Antitumor activity against colon 26 murine adenocarcinoma cells expressed as % body weight change at 0.500 mg/kg compound dose from day 7 to day 12. The class given is functional, Mus musculus. Particulars: dose 0.5 mg/kg.
Experiment [8] concerns Colon 26. The experiment is described as follows: Antitumor activity against colon 26 murine adenocarcinoma cells expressed as percent TGI (tumor growth inhibition) at 0.250 mg/kg i.v. compound dose. The class given is functional. Particulars: Mus musculus, route intravenous, read-out: TGI.
Experiment [9] concerns Colon 26. The experiment is described as follows: Antitumor activity against colon 26 murine adenocarcinoma cells expressed as percent TGI (tumor growth inhibition) at 0.0625 mg/kg i.v. compound dose. Format: functional. Particulars: Mus musculus, route intravenous, read-out: TGI.
For experiment [10], the system named is Colon 26. The experiment in a line: Antitumor activity against colon 26 murine adenocarcinoma cells expressed as % body weight change at 0.250 mg/kg compound dose from day 7 to day 12. Format: functional, Mus musculus. Particulars: dose 0.25 mg/kg.
Experiment [11] has as its system Colon 26. The experiment in a line: Antitumor activity against colon 26 murine adenocarcinoma cells expressed as % body weight change at 0.125 mg/kg compound dose from day 7 to day 12. The class given is functional, Mus musculus.
Experiment [12] has as its system Colon 26. The experiment in a line: Antitumor activity against colon 26 murine adenocarcinoma cells expressed as percent TGI (tumor growth inhibition) at 0.0313 mg/kg i.v. compound dose. Format: functional. To be noted: Mus musculus, route intravenous, read-out: TGI.
Experiment [13] has as its system P388. The experiment in a line: Concentration required to inhibit p388 murine leukemia cells by 50%. The class given is functional, cell-based. Particulars: Mus musculus.
The subject of experiment [14] is Colon 26. The experiment in a line: Antitumor activity against colon 26 murine adenocarcinoma cells expressed as maximum dose within 10% body weight loss at 0.177 mg/kg i.v. compound dose. The class given is functional, Mus musculus. Particulars: route intravenous.
Experiment [15] relates to Colon 26. The experiment in a line: Antitumor activity against colon 26 murine adenocarcinoma cells expressed as % body weight change at 0.0313 mg/kg compound dose from day 7 to day 12. Format: functional, Mus musculus.
Experiment [16] concerns P388. The experiment is described as follows: Percent increase in life span of p388 murine leukemia cells (inoculated i.p. on day 0) as compared to that of untreated group at 0.25 mg/kg i.p. compound dose on day 1; cured mice =2/2. Format: functional. Particulars: Mus musculus, P388, ip, route intraperitoneal.
For experiment [17], the system named is Colon 26. The experiment is described as follows: Antitumor activity against colon 26 murine adenocarcinoma cells expressed as percent TGI (tumor growth inhibition) at 0.177 mg/kg i.v. compound dose. The class given is functional. Particulars: Mus musculus, route intravenous, read-out: TGI.
Experiment [18] can be described thus: Percent tumor growth (TGI) inhibition against S180 murine Sarcoma cells( inoculated s.c. into male ICR mice on day 0), as compared to that of untreated group at 0.25 mg/kg i.v. compound dose on day 1. Format: functional. Particulars: Mus musculus, CCRF S-180, route intravenous, read-out: TGI.
For experiment [19], the system named is Colon 26. The experiment in a line: Antitumor activity against colon 26 murine adenocarcinoma cells expressed as percent TGI 50 (tumor growth inhibition) at 0.177 mg/kg i.v. compound dose. Format: functional, Mus musculus. To be noted: route intravenous.
Experiment [20] concerns Colon 26. The experiment in a line: Antitumor activity against colon 26 murine adenocarcinoma cells expressed as % body weight change at 0.177 mg/kg i.v. compound dose from day 7 to day 12. Format: functional, Mus musculus. Particulars: route intravenous.
In experiment [21] the test system is P388. The experiment in a line: Percent increase in life span of p388 murine leukemia cells (inoculated i.p. on day 0) as compared to that of untreated group at 0.125 mg/kg i.p. compound dose on day 1. Particulars: Mus musculus, P388, ip, route intraperitoneal. The class given is functional.
Experiment [22] in a line: Percent tumor growth (TGI) inhibition against S180 murine Sarcoma cells( inoculated s.c. into male ICR mice on day 0), as compared to that of untreated group at 0.5 mg/kg i.v. compound dose on day 1. Format: functional. To be noted: Mus musculus, CCRF S-180, route intravenous, read-out: TGI.
For experiment [23], the system named is P388. The experiment is described as follows: Percent increase in life span of p388 murine leukemia cells (inoculated i.p. on day 0) as compared to that of untreated group at 0.25 mg/kg i.p. compound dose on day 1; cured mice= 2/2. Format: functional. To be noted: Mus musculus, P388, ip, route intraperitoneal.
Experiment [24] has as its system Colon 26. The experiment is described as follows: Antitumor activity against colon 26 murine adenocarcinoma cells expressed as maximum dose within 10% body weight loss at 0.707 mg/kg i.v. compound dose. The class given is functional, Mus musculus. To be noted: route intravenous.
For experiment [25], the system named is Colon 26. The experiment is described as follows: Antitumor activity against colon 26 murine adenocarcinoma cells expressed as percent TGI 50 (tumor growth inhibition) at 0.707 mg/kg i.v. compound dose. Particulars: route intravenous. Format: functional, Mus musculus.
In experiment [26] the test system is Colon 26. The experiment in a line: Antitumor activity against colon 26 murine adenocarcinoma cells expressed as percent TGI (tumor growth inhibition) at 0.707 mg/kg i.v. compound dose. The class given is functional. Particulars: Mus musculus, route intravenous, read-out: TGI.
For experiment [27], the system named is Colon 26. The experiment in a line: Antitumor activity against colon 26 murine adenocarcinoma cells expressed as % body weight change at 0.707 mg/kg compound dose from day 7 to day 12. Format: functional, Mus musculus.

For `COC(=O)c1c(C(F)(F)F)[nH]c2c(OC(=O)N3CCN(C)CC3)cc3c(c12)[C@H](CBr)CN3C(=O)c1cc2cc(OC)c(OC)c(OC)c2[nH]1`, the “Change in body weight” value is listed as 2% in experiment [1], 8% in experiment [7], 5% in experiment [10] and 1% in [11]. Moreover, the IC50 in experiment [2] was determined as 0.0188 µg/mL (≈ 25 nM). Moreover, the inhibition in vivo at 0.5 mg/kg in [3] was 93%. For the same compound, the inhibition in vivo at 0.125 mg/kg in experiment [4] was 76%. In experiment [5], the TGI50 worked out at 0.0429. In experiment [6], the “MTD/ TGI50” value stood at 11.7. In addition, the inhibition in vivo at 0.25 mg/kg in [8] turned out to be 90%. Besides, in experiment [9], the inhibition in vivo at 0.0625 mg/kg was found to be 58%.

As to `COC(=O)c1c(C(F)(F)F)[nH]c2c1C13CC1CN(C(=O)c1cc4cc(NC(=O)c5cc6ccccc6o5)ccc4[nH]1)C3=CC2=O` (racemic), the “Change in body weight” value is -3% in experiment [1], 0% in [15], -3% in experiment [20] and -4% in experiment [11]. Besides, the inhibition in vivo at 0.0313 mg/kg in [12] stood at 39%. The IC50 in experiment [13] came out at 0.53 ng/mL (≈ 0.862 nM); in [2], 0.000365 µg/mL (≈ 0.594 nM). The “MTD/ TGI50” value in experiment [14] came out at 4.3. The inhibition in vivo at 0.125 mg/kg in [4] came out at 87%. The ILS at 0.25 mg/kg in experiment [16] is 2%. Also, the inhibition in vivo at 0.177 mg/kg in experiment [17] was determined as 85%. Also, the inhibition in vivo at 0.0625 mg/kg in experiment [9] worked out at 68%. Besides, in [18], the inhibition in vivo at 0.25 mg/kg amounted to 83%. In [19], the TGI50 is given as 0.041.

In experiment [13], `COC(=O)c1c(C(F)(F)F)[nH]c2c1C13CC1CN(C(=O)c1cc4cc(OC)c(OC)c(OC)c4[nH]1)C3=CC2=O` (racemic) registered an IC50 of 0.24 ng/mL (≈ 0.44 nM). This compound also displayed an ILS at 0.125 mg/kg in [21] of 94%. In addition, the inhibition in vivo at 0.5 mg/kg in [22] came to 92%.

As for `COC(=O)c1[nH]c2c(c1C(=O)OC)C13CC1CN(C(=O)c1cc4cc(NC(=O)c5cc6ccccc6o5)ccc4[nH]1)C3=CC2=O` (racemic), the half-maximal inhibitory concentration (IC50) in [13] was 0.66 ng/mL (≈ 1.09 nM). The compound further gave an ILS at 0.125 mg/kg in experiment [21] of 79%. Further, the inhibition in vivo at 0.5 mg/kg in experiment [22] came to 26%.

As for `COC(=O)c1c(C(F)(F)F)[nH]c2c1C13CC1CN(C(=O)c1cc4cc(NC(=O)c5cc6ccccc6[nH]5)ccc4[nH]1)C3=CC2=O` (racemic), the half-maximal inhibitory concentration (IC50) in [13] turned out to be 0.86 ng/mL (≈ 1.4 nM). Also, in experiment [23], the ILS at 0.25 mg/kg came to 2%. Besides, the inhibition in vivo at 0.25 mg/kg in experiment [18] worked out at 84%.

Compound `COC(=O)c1c(C(F)(F)F)[nH]c2c1C13CC1CN(C(=O)c1cc4cc(OC)ccc4[nH]1)C3=CC2=O` (racemic) displayed an IC50 in experiment [13] of 0.23 ng/mL (≈ 0.474 nM). This compound displayed an ILS at 0.125 mg/kg in [21] of 69%. For the same compound, the inhibition in vivo at 0.25 mg/kg in experiment [18] worked out at 54%.

`COC(=O)c1c(C)[nH]c2c1[C@@]13C[C@@H]1CN(C(=O)c1cc4cc(OC)c(OC)c(OC)c4[nH]1)C3=CC2=O` (racemic): half-maximal inhibition in [13] (IC50) required 0.34 ng/mL (≈ 0.692 nM). In [21], this compound displayed an ILS at 0.125 mg/kg of 80%. Also, the inhibition in vivo at 0.5 mg/kg in experiment [22] came out at 81%.

As to `COC(=O)c1[nH]c2c(c1C(=O)OC)C13CC1CN(C(=O)c1cc4cc(NC(=O)c5cc6ccccc6[nH]5)ccc4[nH]1)C3=CC2=O` (racemic), half-maximal inhibition in [13] (IC50) was put at 0.31 ng/mL (≈ 0.514 nM). In experiment [21], the ILS at 0.125 mg/kg worked out at 102%. Besides, in [22], the inhibition in vivo at 0.5 mg/kg worked out at 44%.

As to `COC(=O)c1c(C)[nH]c2c(OC(=O)N3CCN(C)CC3)cc3c(c12)[C@H](CBr)CN3C(=O)c1cc2cc(OC)c(OC)c(OC)c2[nH]1` [PIBROZELESIN], the “MTD/ TGI50” value in experiment [24] worked out at 3.4. In [25], this compound registered a TGI50 of 0.209 mg/kg. Also, the inhibition in vivo at 0.707 mg/kg in experiment [26] turned out to be 90%. Besides, inhibition in experiment [2] was half-maximal at 0.0181 µg/mL (≈ 25.9 nM) (IC50). For the same compound, in [3], the inhibition in vivo at 0.5 mg/kg amounted to 85%. For the same compound, the inhibition in vivo at 0.125 mg/kg in experiment [4] was 26%. In addition, the Change in body weight in experiment [7] was -1%; in experiment [10], -2%; in experiment [27] it was -9%; in [11] it was 1%. In experiment [8], the inhibition in vivo at 0.25 mg/kg stood at 62%.

Usually IC50 stands for the concentration needed to halve the response being measured. Lower therefore signals inhibition by little substance. A word on the ILS: it is how much longer treated animals lived than controls. Read a low ILS as a small benefit in survival.
